Assay results from publication PMC5464637, “Identification of key amino acid residues in the hTGR5–nomilin interaction and construction of its binding model” (PLoS ONE, 2017).
Changes are numbered by the printed parent chain.

Key:
[1] = target: T1, hTGR5-WT (Homo sapiens, UniProt Q8TDU6); assay: CRE-luciferase reporter assay in HEK293 cells transfected with hTGR5-WT; type: cell-based; conditions: for agonist activity (CRE-luciferase response): hTGR5-WT, 100 μM, 5 h, HEK293
T1 construct: expressed in transfected cells; host or cells: HEK293
T1 sequence (Q8TDU6 1-330): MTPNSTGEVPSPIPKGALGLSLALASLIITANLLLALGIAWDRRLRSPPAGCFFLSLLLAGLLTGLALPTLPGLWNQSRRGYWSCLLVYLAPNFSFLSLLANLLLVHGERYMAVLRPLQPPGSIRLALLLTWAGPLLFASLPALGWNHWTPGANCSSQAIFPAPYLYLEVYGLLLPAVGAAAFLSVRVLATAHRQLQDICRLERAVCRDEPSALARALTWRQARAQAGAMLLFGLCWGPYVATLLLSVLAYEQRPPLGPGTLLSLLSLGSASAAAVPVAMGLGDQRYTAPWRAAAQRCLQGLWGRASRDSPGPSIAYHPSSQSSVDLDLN
Method: (§1) HEK293 cells were plated in 12-well plates at a density of 1.0 × 10^5 cells/well. Twenty hours later, the cells were transfected with pCRE-Luc, p3×FLAG-CMV-TGR5, and pEF-β-galactosidase (100 ng/well each) using the calcium phosphate method. After 4 h of incubation, the medium was replaced with DMEM, which contained 10% dextran charcoal-stripped FBS. Twenty-four hours after transfection, the cells were treated with the previously mentioned compounds and control vehicle (DMSO). After 5 h, the cells were then incubated with lysis buffer (25 mM Tris-phosphate [pH 7.8], 2 mM dithiothreitol [DTT], 2 mM trans-1,2-Diaminocyclohexane-N,N,N, N′-tetraacetic acid [CDTA], 10% glycerol, and 1% Triton X-100) on ice, and the luciferase and β-galactosidase activity were measured. The luciferase activity values were divided by those of β-galactosidase to obtain normalized luciferase values.

[2] = target: T2, mTGR5-WT (Mus musculus, UniProt Q80SS6); assay: CRE-luciferase reporter assay in HEK293 cells transfected with mTGR5-WT; type: cell-based; conditions: for agonist activity (CRE-luciferase response): 100 μM, 5 h, HEK293; for EC50: CRE-luciferase dose-response, HEK293, n = 3
T2 construct: expressed in transfected cells; host or cells: HEK293
T2 sequence (Q80SS6 1-329): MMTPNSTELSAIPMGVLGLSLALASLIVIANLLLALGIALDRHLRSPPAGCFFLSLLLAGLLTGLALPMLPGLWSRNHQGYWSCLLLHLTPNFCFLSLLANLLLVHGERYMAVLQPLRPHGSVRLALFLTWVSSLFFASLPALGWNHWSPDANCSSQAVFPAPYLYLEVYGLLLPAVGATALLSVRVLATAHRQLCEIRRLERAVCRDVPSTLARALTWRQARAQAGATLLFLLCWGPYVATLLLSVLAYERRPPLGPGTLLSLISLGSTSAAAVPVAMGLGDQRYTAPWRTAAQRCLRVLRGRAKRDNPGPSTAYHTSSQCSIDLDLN
Method: as §1

[3] = target: T3, mTGR5-R76Q/Q79R/H88Y (Mus musculus, UniProt Q80SS6, H88Y/Q79R/R76Q); assay: CRE-luciferase reporter assay in HEK293 cells transfected with mouse-to-human triple mutant TGR5; conditions: for agonist activity (CRE-luciferase response): mTGR5-R76Q/Q79R/H88Y, HEK293
T3 sequence (Q80SS6 1-329 R76Q/Q79R/H88Y): T2 sequence (Q80SS6 1-329) with R76Q, Q79R, H88Y

[4] = target: T4, hTGR5-Q77R/R80Q/Y89H (Homo sapiens, UniProt Q8TDU6, Q77R/R80Q/Y89H); assay: CRE-luciferase reporter assay in HEK293 cells transfected with human-to-mouse triple mutant TGR5; conditions: for EC50: CRE-luciferase dose-response, HEK293, n = 3; for agonist activity (CRE-luciferase response): HEK293
T4 sequence (Q8TDU6 1-330 Q77R/R80Q/Y89H): T1 sequence (Q8TDU6 1-330) with Q77R, R80Q, Y89H

[5] = system: hTGR5-Q77A/R80A/Y89A; conditions: 100 μM, 5 h, HEK293
Method: as §1
(PDF) Click here for additional data file.

| Structure (SMILES) | EC50 [1] [µM] | agonist activity (CRE-luciferase response) [1] | agonist activity (CRE-luciferase response) [2] | EC50 [2] | EC50 [3] [µM] | agonist activity (CRE-luciferase response) [3] | EC50 [4] | agonist activity (CRE-luciferase response) [4] | agonist activity (CRE-luciferase response) [5] |
| --- | --- | --- | --- | --- | --- | --- | --- | --- | --- |
| CC1(C)OC(=O)C=C[C@]2(C)[C@H]3CC[C@@]4(C)[C@H](c5ccoc5)OC(=O)[C@H]5O[C@]54[C@]3(C)C(=O)C[C@@H]12 [obacunone] | 147 | stronger agonist activity for hTGR5 than it does for mTGR5 | very weak obacunone response | undetectable | 165 | equally intense obacunone responses | undetectable | very weak obacunone response | – |
| CC(=O)O[C@H]1CC(=O)OC(C)(C)[C@@H]2CC(=O)[C@]3(C)[C@H](CC[C@@]4(C)[C@H](c5ccoc5)OC(=O)[C@H]5O[C@]543)[C@@]12C [nomilin] | 23.6 | – | considerably weaker agonist activity for mTGR5 than it does for hTGR5 | undetectable | 46.2 | strong nomilin response equal to that of hTGR5-WT | undetectable | very weak nomilin response identical to that of mTGR5 | very weak nomilin response relative to WT-hTGR5 |
| CC1(C)O[C@H]2CC(=O)OC[C@]23[C@H]2CC[C@@]4(C)[C@H](c5ccoc5)OC(=O)[C@H]5O[C@]54[C@]2(C)C(=O)C[C@@H]13 [limonin] | – | very weak hTGR5 agonist activity | – | – | – | – | – | – | – |
